The structures appear in SMILES notation.

Results on 24 compounds are retold here after the Kinase Knowledgebase extract (Sharma et al. 2016).

The target in experiment [1] is PIK3CD (Human) (UniProt O00329). Kind of experiment: Assessment of PIK3CD Kinase Activity.
Experiment [2] concerns the target PIK3CG (human) (UniProt P48736). The experiment in a line: Assessment of PIK3CG Kinase Activity.
For experiment [3], the target named is PIK3CB (Human) (UniProt P42338). The experiment in a line: Assessment of PIK3CB Kinase Activity.
PIK3CB (Human), sequence (P42338 whole entry, looked up): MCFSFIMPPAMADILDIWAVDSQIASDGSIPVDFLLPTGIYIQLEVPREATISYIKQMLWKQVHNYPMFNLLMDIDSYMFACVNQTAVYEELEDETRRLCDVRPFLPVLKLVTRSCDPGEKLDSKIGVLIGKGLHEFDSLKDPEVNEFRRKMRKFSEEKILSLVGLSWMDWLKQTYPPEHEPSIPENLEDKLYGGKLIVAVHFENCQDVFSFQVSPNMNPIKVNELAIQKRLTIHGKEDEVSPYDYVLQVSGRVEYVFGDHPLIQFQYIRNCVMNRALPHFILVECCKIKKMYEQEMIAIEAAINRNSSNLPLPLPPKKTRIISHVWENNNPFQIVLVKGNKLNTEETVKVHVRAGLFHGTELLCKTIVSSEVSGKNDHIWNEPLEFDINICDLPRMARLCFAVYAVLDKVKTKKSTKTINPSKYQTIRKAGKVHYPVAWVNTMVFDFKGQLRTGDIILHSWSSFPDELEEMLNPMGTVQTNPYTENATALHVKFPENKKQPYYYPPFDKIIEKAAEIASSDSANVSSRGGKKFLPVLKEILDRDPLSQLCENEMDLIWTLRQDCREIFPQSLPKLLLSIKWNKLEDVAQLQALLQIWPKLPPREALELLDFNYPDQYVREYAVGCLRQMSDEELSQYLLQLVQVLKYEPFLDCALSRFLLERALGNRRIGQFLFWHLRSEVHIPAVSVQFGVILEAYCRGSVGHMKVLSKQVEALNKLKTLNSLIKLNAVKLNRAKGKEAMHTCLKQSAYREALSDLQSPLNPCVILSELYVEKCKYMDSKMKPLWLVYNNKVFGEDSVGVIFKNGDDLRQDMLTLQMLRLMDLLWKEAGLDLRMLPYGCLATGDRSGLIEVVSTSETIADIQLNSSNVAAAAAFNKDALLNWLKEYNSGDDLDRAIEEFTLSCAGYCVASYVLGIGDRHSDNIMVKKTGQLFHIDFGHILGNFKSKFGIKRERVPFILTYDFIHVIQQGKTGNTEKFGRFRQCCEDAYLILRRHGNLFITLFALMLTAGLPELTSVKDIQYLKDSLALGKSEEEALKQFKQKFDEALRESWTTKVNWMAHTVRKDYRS
The target in experiment [4] is PIK3CA (human) (UniProt P42336). Kind of experiment: Assessment of PIK3CA Kinase Activity.
PIK3CA (human), sequence (P42336 whole entry, looked up): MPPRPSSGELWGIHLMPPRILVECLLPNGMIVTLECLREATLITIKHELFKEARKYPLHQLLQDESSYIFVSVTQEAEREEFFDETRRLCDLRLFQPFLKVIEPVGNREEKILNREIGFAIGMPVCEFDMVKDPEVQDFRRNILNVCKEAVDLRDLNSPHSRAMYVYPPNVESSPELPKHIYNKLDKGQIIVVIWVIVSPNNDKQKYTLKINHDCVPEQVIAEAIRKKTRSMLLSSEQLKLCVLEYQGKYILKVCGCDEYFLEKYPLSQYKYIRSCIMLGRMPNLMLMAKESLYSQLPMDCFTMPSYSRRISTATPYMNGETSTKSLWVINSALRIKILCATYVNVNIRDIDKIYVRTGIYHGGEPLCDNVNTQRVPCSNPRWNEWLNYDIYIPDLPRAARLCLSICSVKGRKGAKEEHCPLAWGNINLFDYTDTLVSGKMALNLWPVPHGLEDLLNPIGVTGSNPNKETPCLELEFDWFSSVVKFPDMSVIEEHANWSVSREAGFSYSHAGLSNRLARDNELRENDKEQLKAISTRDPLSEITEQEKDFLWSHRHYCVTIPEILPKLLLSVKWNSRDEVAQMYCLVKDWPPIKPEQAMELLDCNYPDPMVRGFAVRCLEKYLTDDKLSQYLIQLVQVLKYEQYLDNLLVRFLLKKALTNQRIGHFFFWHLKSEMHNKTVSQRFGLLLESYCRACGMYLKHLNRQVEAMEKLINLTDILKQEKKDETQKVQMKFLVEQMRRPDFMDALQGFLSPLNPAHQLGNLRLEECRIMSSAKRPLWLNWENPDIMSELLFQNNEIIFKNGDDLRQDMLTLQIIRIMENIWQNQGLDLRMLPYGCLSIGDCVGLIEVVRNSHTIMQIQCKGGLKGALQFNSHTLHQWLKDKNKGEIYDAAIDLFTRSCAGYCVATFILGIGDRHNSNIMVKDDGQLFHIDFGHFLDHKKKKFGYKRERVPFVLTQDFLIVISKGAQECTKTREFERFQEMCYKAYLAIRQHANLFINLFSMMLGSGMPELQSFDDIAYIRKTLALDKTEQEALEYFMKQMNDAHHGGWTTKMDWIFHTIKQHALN

PIK3CG (human), sequence (P48736 whole entry, looked up): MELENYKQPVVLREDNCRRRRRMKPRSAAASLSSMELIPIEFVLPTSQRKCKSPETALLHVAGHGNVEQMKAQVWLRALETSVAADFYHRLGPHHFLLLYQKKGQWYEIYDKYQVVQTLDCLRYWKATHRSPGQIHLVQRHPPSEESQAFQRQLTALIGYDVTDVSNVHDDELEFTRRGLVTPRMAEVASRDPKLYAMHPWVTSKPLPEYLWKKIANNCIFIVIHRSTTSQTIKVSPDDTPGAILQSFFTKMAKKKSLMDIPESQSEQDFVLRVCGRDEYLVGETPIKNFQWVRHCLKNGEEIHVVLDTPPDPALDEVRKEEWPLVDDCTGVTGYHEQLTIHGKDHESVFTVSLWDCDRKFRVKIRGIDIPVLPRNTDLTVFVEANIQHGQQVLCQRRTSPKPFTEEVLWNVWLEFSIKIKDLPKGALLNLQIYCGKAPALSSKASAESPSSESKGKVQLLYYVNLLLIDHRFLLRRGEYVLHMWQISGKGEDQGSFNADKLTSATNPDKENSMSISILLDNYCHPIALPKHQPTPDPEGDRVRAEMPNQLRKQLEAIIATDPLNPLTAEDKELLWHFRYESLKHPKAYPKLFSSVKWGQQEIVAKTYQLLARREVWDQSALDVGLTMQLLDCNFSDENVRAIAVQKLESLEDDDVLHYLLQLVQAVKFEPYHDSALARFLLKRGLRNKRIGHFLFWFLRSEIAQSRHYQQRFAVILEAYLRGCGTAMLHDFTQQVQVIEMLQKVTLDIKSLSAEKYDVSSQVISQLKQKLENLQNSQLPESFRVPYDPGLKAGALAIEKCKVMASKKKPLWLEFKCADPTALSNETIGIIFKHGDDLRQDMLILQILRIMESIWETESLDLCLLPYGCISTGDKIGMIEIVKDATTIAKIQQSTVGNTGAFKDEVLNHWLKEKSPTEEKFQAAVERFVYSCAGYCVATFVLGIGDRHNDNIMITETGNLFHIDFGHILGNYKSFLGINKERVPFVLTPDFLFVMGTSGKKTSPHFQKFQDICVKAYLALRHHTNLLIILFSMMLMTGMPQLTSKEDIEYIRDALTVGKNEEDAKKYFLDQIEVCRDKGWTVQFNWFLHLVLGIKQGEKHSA
PIK3CD (Human), sequence (O00329 whole entry, looked up): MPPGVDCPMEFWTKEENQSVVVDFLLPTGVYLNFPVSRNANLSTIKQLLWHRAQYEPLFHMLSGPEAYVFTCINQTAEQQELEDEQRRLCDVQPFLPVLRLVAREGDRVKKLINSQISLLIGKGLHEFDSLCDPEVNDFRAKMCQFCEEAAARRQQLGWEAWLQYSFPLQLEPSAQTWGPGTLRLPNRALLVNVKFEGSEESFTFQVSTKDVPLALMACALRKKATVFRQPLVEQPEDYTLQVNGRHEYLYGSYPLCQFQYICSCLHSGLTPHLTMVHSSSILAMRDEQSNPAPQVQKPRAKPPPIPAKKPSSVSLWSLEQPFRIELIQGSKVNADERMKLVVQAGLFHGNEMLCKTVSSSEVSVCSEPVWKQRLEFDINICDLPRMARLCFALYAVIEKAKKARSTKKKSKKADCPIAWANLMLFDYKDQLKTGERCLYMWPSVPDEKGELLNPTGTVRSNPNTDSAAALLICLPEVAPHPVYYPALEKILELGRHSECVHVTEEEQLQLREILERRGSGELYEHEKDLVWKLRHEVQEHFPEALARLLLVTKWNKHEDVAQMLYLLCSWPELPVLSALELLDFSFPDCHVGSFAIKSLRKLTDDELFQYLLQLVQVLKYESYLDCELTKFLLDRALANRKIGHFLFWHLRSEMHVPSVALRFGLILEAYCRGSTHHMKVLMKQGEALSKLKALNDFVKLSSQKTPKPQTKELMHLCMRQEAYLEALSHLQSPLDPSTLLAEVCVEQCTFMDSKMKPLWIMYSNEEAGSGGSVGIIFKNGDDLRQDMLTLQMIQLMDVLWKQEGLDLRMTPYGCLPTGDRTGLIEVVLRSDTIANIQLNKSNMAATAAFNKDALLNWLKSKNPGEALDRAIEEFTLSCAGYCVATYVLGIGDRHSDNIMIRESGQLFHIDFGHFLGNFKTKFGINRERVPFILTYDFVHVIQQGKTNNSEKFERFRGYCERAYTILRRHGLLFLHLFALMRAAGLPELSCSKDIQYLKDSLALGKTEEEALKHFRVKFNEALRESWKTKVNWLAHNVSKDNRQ

Take `Cc1cc(-c2cccc3cc([C@H](C)Nc4nc(N)ncc4C#N)n(-c4ccccc4)c(=O)c23)cn(C)c1=O`: the IC50 is < 100 nM in experiment [1], < 100 nM in experiment [2] and > 10000 nM in experiment [3].

Take `COc1cc(-c2cccc3cc([C@H](C)Nc4nc(N)ncc4[N+](=O)[O-])n(-c4ccccc4)c(=O)c23)ccn1`: the IC50 is < 100 nM in experiment [1], < 100 nM in experiment [2] and > 10000 nM in experiment [3].

`Cc1ncc(-c2cccc3cc([C@H](C)Nc4nc(N)ncc4C#N)n(-c4cccc(F)c4)c(=O)c23)cn1`: the IC50 in experiment [1] is < 100 nM; in experiment [2], < 100 nM; in experiment [3], > 10000 nM.

As to `C[C@H](Nc1nc(N)ncc1C#N)c1cc2cccc(-c3ccc(O)nc3)c2c(=O)n1-c1ccccc1`, the values for the IC50 in experiment [1], in experiment [2] and in experiment [3] were < 100 nM, < 100 nM and > 10000 nM, respectively.

Regarding `C[C@H](Nc1nc(N)ncc1C#N)c1cc2cccc(Cl)c2c(=O)n1-c1cccc(F)c1`, the results for the IC50 in experiment [1], in experiment [2] and in experiment [3] were < 100 nM, < 100 nM and 100 to 1000 nM, respectively.

As for `CCn1c([C@H](C)Nc2nc(N)ncc2C#N)cc2cccc(Cl)c2c1=O`, the IC50 in experiment [1], in experiment [2] and in experiment [3] was < 100 nM each time.

For `C[C@H](Nc1nc(N)ncc1C(=O)N(C)C)c1cc2cccc(-c3cnn(C)c3)c2c(=O)n1-c1ccccc1`, the IC50 in experiment [1] is < 100 nM; in experiment [2], < 100 nM; in experiment [3], > 10000 nM.

As for `C[C@H](Nc1nc(N)ncc1C#N)c1cc2cccc(Cl)c2c(=O)n1-c1ccc(Cl)cc1`, the concentration for half-maximal inhibition (IC50) was < 100 nM in experiment [1], < 100 nM in experiment [2] and 100 to 1000 nM in experiment [3].

For the compound `Cc1cccc2cc([C@H](C)Nc3nc(N)ncc3C#N)n(-c3cccc(F)c3)c(=O)c12`, the IC50 was < 100 nM in experiment [1], < 100 nM in experiment [2] and 100 to 1000 nM in experiment [3].

On to `CC(C)n1c([C@H](C)Nc2nc(N)ncc2C#N)cc2cccc(Cl)c2c1=O`, for which the IC50 in experiment [1], in experiment [2] and in experiment [3] was < 100 nM each time.

Consider `C[C@H](Nc1nc(N)ncc1-c1ncco1)c1cc2cccc(Cl)c2c(=O)n1-c1ccccc1`, for which the IC50 in experiment [1] is < 100 nM; in experiment [2] it was < 100 nM; in experiment [3], 100 to 1000 nM.

For the compound `Cc1ccc(-c2cccc3cc([C@H](C)Nc4nc(N)ncc4C#N)n(-c4ccccc4)c(=O)c23)cn1`, the values for the IC50 in experiment [1], in experiment [2] and in experiment [3] were < 100 nM, < 100 nM and > 10000 nM, respectively.

Regarding `COc1ccc(-c2cccc3cc([C@H](C)Nc4nc(N)ncc4C#N)n(-c4ccccc4)c(=O)c23)nc1`, the 50% inhibitory concentration (IC50) in experiment [1] is < 100 nM; in experiment [2], < 100 nM; in experiment [3] it was > 10000 nM.

In the case of `C[C@H](Nc1nc(N)ncc1C#N)c1cc2cccc(-c3cccc(NS(=O)(=O)N(C)C)c3)c2c(=O)n1-c1ccccc1`, the 50% inhibitory concentration (IC50) is < 100 nM in experiment [1], 100 to 1000 nM in experiment [2] and > 10000 nM in experiment [3].

Take `C#Cc1cnc(N)nc1N[C@@H](C)c1cc2cccc(Cl)c2c(=O)n1-c1ccccc1`: the IC50 is < 100 nM in experiment [1], < 100 nM in experiment [2] and 100 to 1000 nM in experiment [3].

Regarding `C[C@H](Nc1nc(N)ncc1C#N)c1cc2cccc(-c3cncc(OC(F)F)c3)c2c(=O)n1-c1ccccc1`, the half-inhibitory concentration (IC50) in experiment [1] was < 100 nM; in experiment [2], < 100 nM; in experiment [3] it was > 10000 nM.

Turning to `C[C@H](Nc1nc(N)ncc1C#N)c1cc2cccc(Cl)c2c(=O)n1-c1ccc(F)cc1F`, the IC50 in experiment [1] was < 100 nM; in experiment [2] it was < 100 nM; in experiment [3], 100 to 1000 nM.

On to `C[C@H](Nc1nc(N)ncc1C#N)c1cc2cccc(Cl)c2c(=O)n1-c1ccc(OC(F)(F)F)cc1`, for which the IC50 in experiment [1] was 100 to 1000 nM; in experiment [2], 100 to 1000 nM; in experiment [4], > 10000 nM.

Take `C[C@H](Nc1nc(N)ncc1C#N)c1cc2cccc(Cl)c2c(=O)n1-c1ccccc1F`: the IC50 in experiment [1] is < 100 nM; in experiment [2] it was < 100 nM; in experiment [3], 100 to 1000 nM.

Regarding `C[C@H](Nc1nc(N)ncc1-c1ccncc1)c1cc2cccc(Cl)c2c(=O)n1-c1ccccc1`, the IC50 was 100 to 1000 nM in experiment [1], < 100 nM in experiment [2] and > 10000 nM in experiment [4].

As for `Cc1cc(-c2cccc3cc([C@H](C)Nc4nc(N)ncc4C#N)n(-c4ccccc4)c(=O)c23)ccn1`, the concentration for half-maximal inhibition (IC50) in experiment [1] is < 100 nM; in experiment [2], < 100 nM; in experiment [4], 100 to 1000 nM.

As for `COc1cncc(-c2cccc3cc([C@H](C)Nc4nc(N)ncc4C#N)n(-c4cccc(F)c4)c(=O)c23)c1`, the IC50 in experiment [1] is < 100 nM; in experiment [2] it was < 100 nM; in experiment [4] it was 100 to 1000 nM.

Regarding `COc1ccc(-n2c([C@H](C)Nc3nc(N)ncc3C#N)cc3cccc(Cl)c3c2=O)cc1`, the values for the concentration for half-maximal inhibition (IC50) in experiment [1], in experiment [2] and in experiment [4] were 100 to 1000 nM, < 100 nM and > 10000 nM, respectively.

`C[C@H](Nc1nc(N)ncc1C#N)c1cc2cccc(-c3ccc(F)cc3)c2c(=O)n1-c1ccccc1`: the IC50 is < 100 nM in experiment [1], < 100 nM in experiment [2] and 100 to 1000 nM in experiment [4].

As usually defined, the IC50 is the midpoint of a concentration-inhibition curve.
